For 24 compounds, EC50 results are on record in patent publication US20250129104A1, “7H-PYRROLO[2,3-D]PYRIMIDINES AND PREPARATION AND USES THEREOF” (BioSplice Therapeutics, Inc., priority 2021, published 2025).

In assay [1] the target is recombinant DYRK1A kinase (Homo sapiens (Human), UniProt Q13627). In words: DYRK1A kinase assay (Ser/Thr 18 peptide Z-lyte FRET assay). It is filed as biochemical. As to conditions: DYRK1A kinase activity; 15 μM ATP, 1 h room temperature; method text calls the value IC50. In outline:
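FRET Z-lyte read-out (coumarin/fluorescein ratio, % phosphorylation) after 1 h development; IC50 from non-linear curve fit. Reaction: 0.25 μg/mL recombinant human DYRK1A, Ser/Thr 18 peptide 4 μM, ATP 15 μM, compound in 11-point 1:3 series from 10 μM, 1 h, room temperature, duplicate wells.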

Assay [2] relates to Tau phosphorylation at Thr212 (pThr212). Briefly: tau phosphorylation assay: phosphoTau (Thr212) AlphaLISA in HEK293T cells transfected with DYRK1A and MAPT. In kind it is cell-based. As to conditions: HEK-293T; HEK293T cells transfected with human DYRK1A and MAPT; 18-24 h compound treatment; read-out: pTau (Thr212) EC50. How it is done: Representative compounds were screened using the assay procedure for tau phosphorylation activity described below.
HEK293T cells (ATCC, CRL3216) cultured in DMEM (Thermo Fisher Scientific, 10566024) supplemented with 10% FBS (Corning, 35-011-CV) and Penicillin/Streptomycin (Thermo Fisher Scientific, 15140163) were seeded in a 75 cm^2 flask at 8.1×10^6 cells/flask. The HEK293T cells were then transiently transfected with 5 μg DYRK1A (NM_001396) human untagged clone (OriGene, SC314641) and 2.5 μg MAPT (441 a.a. Tau gene) (NM_005910) human untagged clone (OriGene, TP313312) using Lipofectamine 3000 (Thermo Fisher Scientific, L30000015) and incubated for 20-30 hours in a humidified incubator at 37° C. and 5% CO2. Post-incubation, HEK293T cells transfected with the DYRK1A and MAPT expression vectors were harvested and seeded in BioCoat poly-D lysine coated 96-well plates (Corning, 354461) at 3×10^4 cells/well.
The above synthesized compounds were screened using the cell assay procedure to assess decreased Tau phosphorylation at Thr212 (pThr212) described below.
Each compound was dissolved in DMSO (Sigma-Aldrich, D8418-100 mL) as a 10 mM stock. 10 mM stocks were serially diluted 1:3, 10-point dose-response curve and added to the cells with a final concentration ranging from 20 μM to 1.1 nM. Cell were treated with compounds in duplicate and incubated for 18-24 hours in a humidified incubator at 37° C. and 5% CO2.
Following the overnight compound treatment, cells were lysed with 1× Alpha Surefire Ultra Lysis Buffer (Perkin Elmer, ALSU-LB-100ML) complemented with 1× Halt Phosphatase Inhibitor Cocktail (Thermo Fisher Scientific, 78427) and 1× Halt Protease Inhibitor Cocktail (Thermo Fisher Scientific, 78438). Lysates were spun down at 12,000 g for 10 min to remove any cellular debris and 5 μL of lysates were dispensed into a 384-well Opti-Plate (Perkin Elmer, 6007290) for the measurement of Tau phosphorylation in the phosphoTau (Thr212) AlphaLISA assay. Donor antibody, biotinylated HT7Tau (Thermo Fisher Scientific, MN1000B), and acceptor antibody, pThr212Tau (Thermo Fisher Scientific, 44740G) were both added to the cell lysates at a final concentration of 3 nM and incubated for 1 hour at room temperature. Following incubation of the lysates with the donor and acceptor antibodies, anti-rabbit IgG (Fc specific) AlphaLISA acceptor beads (Perkin Elmer, AL104C) were added at a 10 μg/mL final concentration and incubated for 1 hour at room temperature protected from light. Lastly, AlphaScreen streptavidin donor beads (PerkinElmer, 6760002) were added at 40 μg/mL final concentration and incubated for 1 hour at room temperature protected from light. Plates were read at […], and Em=615 nm on the EnVision Multilabel Plate Reader (Perkin Elmer). PhosphoTau (Thr212) AlphaLISA signal was used to plot, draw the curve fitting, and determine each compound's EC50 in Prism (GraphPad).

By EC50 is commonly meant the concentration that produces a half-maximal response. As for `FC(F)(F)CCc1ncc2c(-c3cnc4nccn4c3)c[nH]c2n1` [Compound 449, 5-(Imidazo[1,2-a]pyrimidin-6-yl)-2-(3,3,3-trifluoropropyl)-7H-pyrrolo[2,3-d]pyrimidine], the results for the EC50 in assay [1] and in assay [2] were 0.0094 µM and 0.497 µM, respectively.
On the same counts, the results for `c1cn2cc(-c3c[nH]c4nc(C5CC5)ncc34)cnc2n1` [Compound 450, 2-Cyclopropyl-5-(imidazo[1,2-a]pyrimidin-6-yl)-7H-pyrrolo[2,3-d]pyrimidine] are 0.0161 µM and 0.98 µM.
For `c1cn2cc(-c3c[nH]c4nc(CC5CCC5)ncc34)cnc2n1` [Compound 452, 2-(Cyclobutylmethyl)-5-(imidazo[1,2-a]pyrimidin-6-yl)-7H-pyrrolo[2,3-d]pyrimidine], the figures for the EC50 in assay [1] and in assay [2] were 0.0202 µM and 1.22 µM, respectively.
On the same counts, the results for `CC(C)(F)CNc1ncc2c(-c3cnc4nccn4c3)c[nH]c2n1` [Compound 460, N-(2-Fluoro-2-methylpropyl)-5-(imidazo[1,2-a]pyrimidin-6-yl)-7H-pyrrolo [2,3-d]pyrimidin-2-amine] are 0.0015 µM and 0.057 µM.
The corresponding values for `C[C@@H](Nc1ncc2c(-c3cnc4nccn4c3)c[nH]c2n1)C1CC1` [Compound 469, (R)—N-(1-cyclopropylethyl)-5-(imidazo[1,2-a]pyrimidin-6-yl)-7H-pyrrolo [2,3-d]pyrimidin-2-amine] are 0.0076 µM and 0.246 µM.
On the same counts, the results for `COc1nc(CC(C)C)nc2[nH]cc(-c3cc(F)c4nc(C)n(C(C)C)c4c3)c12` [Compound 497, 5-(4-Fluoro-1-isopropyl-2-methyl-1H-benzo[d]imidazol-6-yl)-2-isobutyl-4-methoxy-7H-pyrrolo[2,3-d]pyrimidine] are 0.0092 µM and 0.433 µM.
With `Cc1nc2c(F)cc(-c3c[nH]c4nc(C5CC5)ncc34)cc2n1C(C)C` [Compound 499, 2-Cyclopropyl-5-(4-fluoro-1-isopropyl-2-methyl-1H-benzo[d]imidazol-6-yl)-7H-pyrrolo[2,3-d]pyrimidine], the EC50 in assay [1] was found to be 0.006 µM; in assay [2] it was 0.296 µM.
With `Cc1nc2c(F)cc(-c3c[nH]c4nc(C5CCC5)ncc34)cc2n1C(C)C` [Compound 500, 2-Cyclobutyl-5-(4-fluoro-1-isopropyl-2-methyl-1H-benzo[d]imidazol-6-yl)-7H-pyrrolo[2,3-d]pyrimidine], the EC50 came to 0.0198 µM in assay [1] and 0.338 µM in assay [2].
Take `Cc1nc2c(F)cc(-c3c[nH]c4nc(NCC(C)(C)C)ncc34)cc2n1C(C)C` [Compound 507, 5-(4-Fluoro-1-isopropyl-2-methyl-1H-benzo[d]imidazol-6-yl)-N-neopentyl-7H-pyrrolo[2,3-d]pyrimidin-2-amine]: the EC50 turned out to be 0.0072 µM in assay [1] and 0.037 µM in assay [2].
The corresponding values for `Cc1nc2c(F)cc(-c3c[nH]c4nc(C5CC5)ncc34)cc2n1C1CCN(C)CC1` [Compound 544, 2-Cyclopropyl-5-(4-fluoro-2-methyl-1-(1-methylpiperidin-4-yl)-1H-benzo[d]imidazol-6-yl)-7H-pyrrolo[2,3-d]pyrimidine] are 0.0122 µM and 0.408 µM.
The corresponding values for `Cc1nc2ncc(-c3c[nH]c4nc(C5CCC5)ncc34)cc2n1C(C)C` [Compound 588, 6-(2-Cyclobutyl-7H-pyrrolo[2,3-d]pyrimidin-5-yl)-1-isopropyl-2-methyl-1H-imidazo[4,5-b]pyridine] are 0.025 µM and 1.47 µM.
On to `Cc1nc2ccc(-c3c[nH]c4nc(NCC(C)(C)F)ncc34)nc2n1C` [Compound 629, 5-(2,3-Dimethyl-3H-imidazo[4,5-b]pyridin-5-yl)-N-(2-fluoro-2-methylpropyl)-7H-pyrrolo[2,3-d]pyrimidin-2-amine], for which the EC50 in assay [1] was 0.531 µM; in assay [2], 0.028 µM.
On the same counts, the results for `Cc1nc2ccc(-c3c[nH]c4nc(N[C@H](C)C(F)(F)F)ncc34)nc2n1CC(F)F` [Compound 646, (R)-5-(3-(2,2-Difluoroethyl)-2-methyl-3H-imidazo[4,5-b]pyridin-5-yl)-N-(1,1,1-trifluoropropan-2-yl)-7H-pyrrolo[2,3-d]pyrimidin-2-amine] are 0.0056 µM and 0.006 µM.
On to `Cc1nc2ccc(-c3c[nH]c4nc(CC(C)C)ncc34)nc2n1C(C)C` [Compound 674, 5-(2-Isobutyl-7H-pyrrolo[2,3-d]pyrimidin-5-yl)-3-isopropyl-2-methyl-3H-imidazo[4,5-b]pyridine], for which the values for the EC50 in assay [1] and in assay [2] were 0.0051 µM and 0.072 µM, respectively.
On the same counts, the results for `CC(C)Nc1ncc2c(-c3ccc4ncnn4c3)c[nH]c2n1` [Compound 726, 5-([1,2,4]Triazolo[1,5-a]pyridin-6-yl)-N-isopropyl-7H-pyrrolo[2,3-d]pyrimidin-2-amine] are 0.0224 µM and 0.815 µM.
The corresponding values for `CC(C)CNc1ncc2c(-c3ccc4ncnn4c3)c[nH]c2n1` [Compound 727, 5-([1,2,4]Triazolo[1,5-a]pyridin-6-yl)-N-isobutyl-7H-pyrrolo[2,3-d]pyrimidin-2-amine] are 0.0069 µM and 0.078 µM.
With `FC(F)CNc1ncc2c(-c3ccc4ncnn4c3)c[nH]c2n1` [Compound 730, 5-([1,2,4]Triazolo[1,5-a]pyridin-6-yl)-N-(2,2-difluoroethyl)-7H-pyrrolo[2,3-d]pyrimidin-2-amine], the results for the EC50 in assay [1] and in assay [2] were 0.0336 µM and 0.504 µM, respectively.
The corresponding values for `CC(C)(F)CNc1ncc2c(-c3ccc4ncnn4c3)c[nH]c2n1` [Compound 731, 5-([1,2,4]Triazolo[1,5-a]pyridin-6-yl)-N-(2-fluoro-2-methylpropyl)-7H-pyrrolo[2,3-d]pyrimidin-2-amine] are 0.0086 µM and 0.199 µM.
On the same counts, the results for `CC(F)(F)CNc1ncc2c(-c3ccc4ncnn4c3)c[nH]c2n1` [Compound 732, 5-([1,2,4]Triazolo[1,5-a]pyridin-6-yl)-N-(2,2-difluoropropyl)-7H-pyrrolo [2,3-d]pyrimidin-2-amine] are 0.0117 µM and 0.191 µM.
`C[C@@H](Nc1ncc2c(-c3ccc4ncnn4c3)c[nH]c2n1)C(F)(F)F` [Compound 734, (R)-5-([1,2,4]Triazolo[1,5-a]pyridin-6-yl)-N-(1,1,1-trifluoropropan-2-yl)-7H-pyrrolo[2,3-d]pyrimidin-2-amine]: the EC50 in assay [1] was 0.0187 µM; in assay [2], 0.335 µM.
The corresponding values for `FC1(CNc2ncc3c(-c4ccc5ncnn5c4)c[nH]c3n2)CC1` [Compound 739, 5-([1,2,4]Triazolo[1,5-a]pyridin-6-yl)-N-((1-fluorocyclopropyl)methyl)-7H-pyrrolo[2,3-d]pyrimidin-2-amine] are 0.0326 µM and 0.265 µM.
The corresponding values for `C[C@@H](Nc1ncc2c(-c3ccc4ncnn4c3)c[nH]c2n1)C1CC1` [Compound 740, (R)-5-([1,2,4]Triazolo[1,5-a]pyridin-6-yl)-N-(1-cyclopropylethyl)-7H-pyrrolo [2,3-d]pyrimidin-2-amine] are 0.022 µM and 0.226 µM.
On to `FC1(F)CC(Nc2ncc3c(-c4ccc5ncnn5c4)c[nH]c3n2)C1` [Compound 744, 5-([1,2,4]Triazolo[1,5-a]pyridin-6-yl)-N-(3,3-difluorocyclobutyl)-7H-pyrrolo [2,3-d]pyrimidin-2-amine], for which the EC50 turned out to be 0.0065 µM in assay [1] and 0.213 µM in assay [2].
On the same counts, the results for `FC1(CNc2ncc3c(-c4ccc5ncnn5c4)c[nH]c3n2)CCC1` [Compound 745, 5-([1,2,4]Triazolo[1,5-a]pyridin-6-yl)-N-((1-fluorocyclobutyl)methyl)-7H-pyrrolo[2,3-d]pyrimidin-2-amine] are 0.0051 µM and 0.09 µM.
